# Calls of active or inactive are those of the source. Rule as the data show it, for most assays here: actives have a measured EC50 and inactives only a lower limit.
# How the values were obtained:
# [1] = Luminescence Cell-Based Dose Confirmation HTS to Identify Inhibitors of Platelet Dense Granule Release. [Related pubchem assays: 1663 (Primary HTS), 1678 (Summary of Project)]; type: functional
# [2] = tested on: BJ; test: BJ-TERT-LT-ST fibroblast viability loss – cell-based, RAS-independent, luminescence, dose response (AID 1935); type: functional; conditions: Homo sapiens;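 also: BJ fibroblasts immortalized with TERT plus LT and ST oncogenes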
# [3] = tested on: BJ; test: BJ-TERT fibroblast viability loss – cell-based, RAS-independent, luminescence, dose response (AID 1933); type: functional; conditions: Homo sapiens
# [4] = biological target: T1, Heat shock factor protein 1 (Mus musculus, UniProt P38532); test: decrease of HSF1-responsive luciferase luminescence – cell-based, NIH3T3, dose retest, confirmation (AID 2382); type: functional;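 also: NIH3T3 fibroblasts with HSF1-driven luciferase reporter stressed by proteasome inhibitor MG132; luminescence from HSF1-driven luciferase expression after 8 hours of MG132 stress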
# T1 sequence (P38532 whole entry): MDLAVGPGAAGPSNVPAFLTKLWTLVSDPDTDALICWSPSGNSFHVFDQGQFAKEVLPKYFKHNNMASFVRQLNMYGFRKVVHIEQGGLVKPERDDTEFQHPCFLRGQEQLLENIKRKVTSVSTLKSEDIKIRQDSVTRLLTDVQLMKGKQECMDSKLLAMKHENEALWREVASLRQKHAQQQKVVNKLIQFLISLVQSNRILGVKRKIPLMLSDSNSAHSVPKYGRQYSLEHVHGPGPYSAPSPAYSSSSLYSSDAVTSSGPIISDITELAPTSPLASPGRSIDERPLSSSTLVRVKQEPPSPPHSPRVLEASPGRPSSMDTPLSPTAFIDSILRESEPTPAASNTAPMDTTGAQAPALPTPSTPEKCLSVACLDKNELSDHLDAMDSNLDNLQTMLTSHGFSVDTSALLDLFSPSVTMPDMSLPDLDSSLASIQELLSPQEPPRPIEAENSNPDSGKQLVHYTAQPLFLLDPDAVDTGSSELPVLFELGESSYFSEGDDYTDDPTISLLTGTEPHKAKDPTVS
# [5] = tested on: BJ; test: cells; type: functional, cell-based; conditions: Homo sapiens
# [6] = DRD fibroblast viability loss – cell-based, non-viral oncogenic, luminescence, dose response (AID 1934); type: functional; conditions: Homo sapiens
# [7] = biological target: Luciferin 4-monooxygenase (Photinus pyralis, UniProt P08659); test: inhibition of purified Photinus pyralis luciferase – biochemical, luminescence, dose response (AID 1891)
# Chain of Luciferin 4-monooxygenase (P08659 whole entry): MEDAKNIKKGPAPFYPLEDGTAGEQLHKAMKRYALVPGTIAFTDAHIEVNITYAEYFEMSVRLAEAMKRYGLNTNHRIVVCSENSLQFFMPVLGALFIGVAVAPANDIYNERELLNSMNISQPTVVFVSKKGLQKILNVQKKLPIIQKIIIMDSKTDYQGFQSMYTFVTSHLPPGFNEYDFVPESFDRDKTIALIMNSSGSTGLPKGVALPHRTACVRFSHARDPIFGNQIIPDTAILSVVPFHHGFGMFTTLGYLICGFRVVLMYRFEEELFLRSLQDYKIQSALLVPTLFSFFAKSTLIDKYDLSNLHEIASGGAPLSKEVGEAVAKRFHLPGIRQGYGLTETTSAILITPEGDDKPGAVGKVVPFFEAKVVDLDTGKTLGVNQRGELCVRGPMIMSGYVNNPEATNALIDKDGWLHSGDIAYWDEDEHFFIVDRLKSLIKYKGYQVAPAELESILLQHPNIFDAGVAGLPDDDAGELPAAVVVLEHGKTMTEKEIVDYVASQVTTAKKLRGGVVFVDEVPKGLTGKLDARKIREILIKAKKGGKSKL
# [8] = biological target: T2, Calpain-2 catalytic subunit (Sus scrofa, UniProt P43367); test: m-calpain protease blockers, concentration series – biochemical, fluorogenic peptide substrate, dose response (AID 1420); type: functional
# T2 sequence (P43367 whole entry): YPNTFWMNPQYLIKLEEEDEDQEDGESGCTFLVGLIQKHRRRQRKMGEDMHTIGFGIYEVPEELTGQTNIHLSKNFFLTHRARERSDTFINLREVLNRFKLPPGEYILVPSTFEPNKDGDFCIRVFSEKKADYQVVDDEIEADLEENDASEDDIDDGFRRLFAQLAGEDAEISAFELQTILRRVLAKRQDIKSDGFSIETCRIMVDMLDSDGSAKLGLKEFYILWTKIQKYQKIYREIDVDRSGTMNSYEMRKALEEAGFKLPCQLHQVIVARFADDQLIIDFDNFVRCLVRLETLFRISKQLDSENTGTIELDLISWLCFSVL
# [9] = biological target: Cytochrome P450 3A4 (Homo sapiens, UniProt P08684);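 also: CYP3A4 tested as one member of a cytochrome P450 panel screen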
# Chain of Cytochrome P450 3A4 (P08684 whole entry): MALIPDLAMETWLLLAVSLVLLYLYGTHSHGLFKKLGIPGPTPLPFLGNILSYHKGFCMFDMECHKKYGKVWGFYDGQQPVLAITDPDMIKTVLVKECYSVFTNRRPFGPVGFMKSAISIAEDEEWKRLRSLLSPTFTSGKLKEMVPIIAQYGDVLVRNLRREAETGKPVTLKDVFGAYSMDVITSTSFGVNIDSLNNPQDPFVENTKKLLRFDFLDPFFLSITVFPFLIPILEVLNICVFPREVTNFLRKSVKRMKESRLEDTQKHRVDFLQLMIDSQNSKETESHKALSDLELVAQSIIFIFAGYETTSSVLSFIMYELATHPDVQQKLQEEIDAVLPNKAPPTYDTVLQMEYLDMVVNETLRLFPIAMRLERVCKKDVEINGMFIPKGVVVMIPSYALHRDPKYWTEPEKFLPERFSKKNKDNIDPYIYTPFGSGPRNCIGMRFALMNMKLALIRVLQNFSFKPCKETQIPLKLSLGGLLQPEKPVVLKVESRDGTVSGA
# [10] = biological target: T3, Cytochrome P450 1A2 (Homo sapiens, UniProt P05177);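 also: PubChem cytochrome P450 panel assay, CYP1A2 panel member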
# T3 sequence (P05177 whole entry): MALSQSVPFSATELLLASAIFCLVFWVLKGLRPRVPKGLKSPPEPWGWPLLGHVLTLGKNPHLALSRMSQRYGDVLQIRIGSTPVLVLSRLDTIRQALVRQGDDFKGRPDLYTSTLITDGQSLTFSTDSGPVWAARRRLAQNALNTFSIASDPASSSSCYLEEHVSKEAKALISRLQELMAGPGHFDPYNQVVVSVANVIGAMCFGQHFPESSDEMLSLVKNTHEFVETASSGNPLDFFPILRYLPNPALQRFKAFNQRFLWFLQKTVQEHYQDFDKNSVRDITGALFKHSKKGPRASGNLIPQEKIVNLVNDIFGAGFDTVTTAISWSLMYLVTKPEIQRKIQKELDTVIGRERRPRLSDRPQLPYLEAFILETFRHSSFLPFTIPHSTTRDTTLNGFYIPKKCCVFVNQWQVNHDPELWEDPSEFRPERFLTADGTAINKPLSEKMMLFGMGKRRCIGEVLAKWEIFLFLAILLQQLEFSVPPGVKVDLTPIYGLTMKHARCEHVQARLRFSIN
# [11] = biological target: Cytochrome P450 2D6 (Homo sapiens, UniProt P10635);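 also: CYP2D6 member of a cytochrome P450 panel assay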
# Chain of Cytochrome P450 2D6 (P10635 whole entry): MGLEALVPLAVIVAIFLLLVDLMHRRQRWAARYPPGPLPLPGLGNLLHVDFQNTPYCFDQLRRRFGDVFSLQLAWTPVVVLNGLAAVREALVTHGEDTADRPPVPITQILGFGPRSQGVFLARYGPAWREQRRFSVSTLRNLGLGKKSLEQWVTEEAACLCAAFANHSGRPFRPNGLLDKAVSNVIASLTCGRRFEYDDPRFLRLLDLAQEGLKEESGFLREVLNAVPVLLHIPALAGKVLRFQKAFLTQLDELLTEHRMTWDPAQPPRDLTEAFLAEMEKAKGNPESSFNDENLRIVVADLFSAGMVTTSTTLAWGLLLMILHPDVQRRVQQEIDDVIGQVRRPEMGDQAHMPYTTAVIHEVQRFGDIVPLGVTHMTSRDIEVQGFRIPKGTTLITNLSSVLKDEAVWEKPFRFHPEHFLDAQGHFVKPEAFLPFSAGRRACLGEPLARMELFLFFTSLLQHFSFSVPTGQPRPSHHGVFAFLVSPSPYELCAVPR
# [12] = viability of uninfected HEp-2 cells – cell-based, HTS, cytotoxicity control for RSV inhibitor project, dose response (AID 2410); type: functional; conditions: human respiratory syncytial virus
# [13] = alpha-synuclein stem-loop luciferase translation blockers – H4 neuroglioma cells, luminescence, confirmation (AID 1988); type: functional, cell-based
# [14] = luciferase reporter signal suppression in cells – H4 neuroglioma cells, luminescence, dose response (AID 1990); type: functional, cell-based
# [15] = Luminescence Cell-Based Dose Response HTS to Identify Inhibitors of 5'UTR Stem-Loop Driven Prion Protein mRNA Translation in H4 Neuroglioblastoma Cells. [Related pubchem assays: 1827 (Project Summary), 1813 (Primary HTS)]; type: functional
# [16] = biological target: T4, Protein RecA (Mycobacterium tuberculosis, UniProt P9WHJ3); test: Fluorescence Cell-Free Homogeneous Dose Retest to Identify Inhibitors of RecA-Intein Splicing Activity. [Related pubchem assays (depositor defined):AID2097, AID2223, AID489010, AID492950]; type: functional
# T4 sequence (P9WHJ3 whole entry): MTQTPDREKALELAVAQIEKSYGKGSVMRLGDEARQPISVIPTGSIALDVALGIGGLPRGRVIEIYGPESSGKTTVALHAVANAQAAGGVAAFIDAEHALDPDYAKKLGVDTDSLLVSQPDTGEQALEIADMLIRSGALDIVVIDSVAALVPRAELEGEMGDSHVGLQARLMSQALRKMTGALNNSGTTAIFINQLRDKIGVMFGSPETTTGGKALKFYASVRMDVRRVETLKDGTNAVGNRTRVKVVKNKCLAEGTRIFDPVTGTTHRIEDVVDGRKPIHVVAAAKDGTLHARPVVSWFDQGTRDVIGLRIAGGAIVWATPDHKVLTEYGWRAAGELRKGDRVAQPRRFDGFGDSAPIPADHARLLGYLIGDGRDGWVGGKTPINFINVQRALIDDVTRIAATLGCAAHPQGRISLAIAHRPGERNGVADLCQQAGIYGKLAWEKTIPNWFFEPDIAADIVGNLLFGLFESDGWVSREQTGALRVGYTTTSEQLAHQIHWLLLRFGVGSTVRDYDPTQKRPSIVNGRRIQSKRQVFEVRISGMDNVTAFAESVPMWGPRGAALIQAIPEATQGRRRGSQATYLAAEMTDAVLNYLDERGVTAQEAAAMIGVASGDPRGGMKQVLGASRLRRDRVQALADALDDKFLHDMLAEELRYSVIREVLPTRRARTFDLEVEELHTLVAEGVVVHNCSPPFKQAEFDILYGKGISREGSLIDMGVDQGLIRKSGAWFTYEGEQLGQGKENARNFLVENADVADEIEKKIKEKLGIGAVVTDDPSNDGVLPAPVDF
# [17] = biological target: T5, Replicative DNA helicase DnaB (Mycobacterium tuberculosis, UniProt P9WMR3); test: DnaB intein splicing inhibitors, dose response, biochemical, cell-free fluorescence (AID 449749); type: functional
# T5 sequence (P9WMR3 whole entry): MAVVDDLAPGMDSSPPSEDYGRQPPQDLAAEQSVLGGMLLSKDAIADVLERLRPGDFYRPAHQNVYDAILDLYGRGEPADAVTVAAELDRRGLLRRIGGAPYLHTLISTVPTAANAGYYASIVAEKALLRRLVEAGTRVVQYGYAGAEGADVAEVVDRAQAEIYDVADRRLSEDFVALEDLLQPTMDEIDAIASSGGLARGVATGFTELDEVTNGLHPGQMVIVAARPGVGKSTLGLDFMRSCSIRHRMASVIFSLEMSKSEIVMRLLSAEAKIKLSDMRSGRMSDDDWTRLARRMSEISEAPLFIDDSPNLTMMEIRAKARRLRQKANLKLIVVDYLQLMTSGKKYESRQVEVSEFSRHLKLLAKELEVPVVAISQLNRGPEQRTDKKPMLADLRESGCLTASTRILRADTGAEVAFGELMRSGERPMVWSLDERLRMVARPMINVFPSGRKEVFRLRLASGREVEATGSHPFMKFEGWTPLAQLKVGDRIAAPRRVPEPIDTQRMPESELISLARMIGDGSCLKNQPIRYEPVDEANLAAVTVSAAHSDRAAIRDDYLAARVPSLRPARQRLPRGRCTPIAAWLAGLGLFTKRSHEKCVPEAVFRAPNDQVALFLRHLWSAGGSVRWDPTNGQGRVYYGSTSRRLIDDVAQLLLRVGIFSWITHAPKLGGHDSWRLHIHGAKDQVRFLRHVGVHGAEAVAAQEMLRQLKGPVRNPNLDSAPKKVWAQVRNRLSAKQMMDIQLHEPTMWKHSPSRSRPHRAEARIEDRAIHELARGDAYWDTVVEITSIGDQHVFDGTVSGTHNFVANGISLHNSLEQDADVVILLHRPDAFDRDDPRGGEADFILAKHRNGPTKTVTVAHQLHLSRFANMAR
smiles,measurement,setting,value
COc1cc(O)oc1/C=N/c1ccc(C(=O)O)cc1,EC50,[1],2.74 µM (active)
same,EC50,[2],> 150 µM (inconclusive)
same,EC50,[3],13.7 µM (active)
same,EC50,[4],> 195 µM (not active)
same,EC50,[5],9.97 µM (active)
same,EC50,[6],10.7 µM (active)
same,EC50,[7],10.7 µM (active)
O=S(=O)(c1ccc2c(c1)OCCO2)N1CCc2ccccc21,IC50,[8],> 50 µM (not active)
O=C(NC12CC3CC(CC(C3)C1)C2)c1ccc(COc2ccc(Cl)cc2[N+](=O)[O-])o1,AC50,[9],15.8 µM (inconclusive)
same,AC50,[10],14.1 µM (inconclusive)
same,AC50,[11],28.2 µM (inconclusive)
same,CC50,[12],32.4 µM (active)
CCC1CCCCN1C(=O)c1ccc(OC2CCN(C(=O)C3CC3)CC2)cc1 (centres undefined),IC50,[8],> 50 µM (not active)
COc1cc(OC)cc(C(=O)NCCN2CCOCC2)c1,IC50,[8],48.3 µM (not active)
CCC(C)C(=O)Nc1ccc([N+](=O)[O-])cc1OC (centres undefined),IC50,[8],16.1 µM (not active)
O=C(Nc1cnn(Cc2ccc(F)cc2)c1)c1cc2nc(-c3ccco3)cc(C(F)(F)F)n2n1,IC50,[8],0.777 µM (not active)
Cc1ccc(SC[C@H](Cc2ccccc2)N2CCN(CCc3ccccc3)CCC2=O)cc1,IC50,[8],5.01 µM (not active)
CCn1cnc2c([N+](=O)[O-])c(NS(=O)(=O)c3ccc(C)cc3)ccc21,EC50,[2],> 150 µM (inconclusive)
same,EC50,[3],> 150 µM (not active)
same,EC50,[5],> 150 µM (not active)
same,EC50,[6],> 150 µM (not active)
O=Cc1ccc(-n2nncc2-c2ccc([N+](=O)[O-])cc2)cc1,IC50,[8],12.6 µM (not active)
COc1ccc(/C=C2\SC(=S)N(CC(=O)OCC(=O)Nc3cc(Cl)cc(Cl)c3)C2=O)cc1,EC50,[2],> 150 µM (not active)
same,EC50,[3],> 150 µM (not active)
same,EC50,[5],> 150 µM (not active)
same,EC50,[6],> 150 µM (not active)
C/C(CC(=O)Nc1ccccn1)=N\NC(=O)c1ccccc1O,EC50,[13],12.7 µM (active)
same,EC50,[14],14 µM (active)
same,EC50,[15],10.9 µM (active)
CN(C)c1ccc2nc3ccc(N(C)C)cc3[s+]c2c1 [METHYLENE BLUE ANHYDROUS],EC50,[13],5.46 µM (inconclusive)
same,EC50,[15],11.1 µM (inconclusive)
CCOC(=O)c1c(NC(=O)CNC2CCCCC2)sc(C)c1C,IC50,[8],6.04 µM (not active)
CCCN1CCC(=NNc2ccc(S(=O)(=O)N3CCOCC3)cc2[N+](=O)[O-])CC1,EC50,[13],6.57 µM (active)
same,EC50,[14],11.1 µM (inconclusive)
same,EC50,[15],13.8 µM (active)
CCOC(=O)c1ccc(NC(=O)Nc2ncccc2C)cc1,IC50,[8],12.4 µM (not active)
O=C(O)COc1cccc(/C=C2/SC(=S)N(Cc3ccccc3)C2=O)c1,EC50,[16],10.1 µM (active)
same,EC50,[2],> 150 µM (inconclusive)
same,EC50,[3],> 150 µM (not active)
same,EC50,[5],> 150 µM (not active)
same,AC50,[17],9.8 µM (active)
same,EC50,[6],> 150 µM (not active)
COc1ccc(C2CC(C(F)(F)F)n3ncc(C(=O)Nc4cccc(O)c4)c3N2)cc1OC (centres undefined),EC50,[13],54.7 µM (active)
same,EC50,[14],20.3 µM (active)
same,EC50,[15],23.2 µM (active)
CC(C)Cn1c(N)c(C(=O)COC(=O)c2ccccc2F)c(=O)n(C)c1=O,IC50,[8],> 50 µM (not active)
CCCCNc1nc(NC)nc(Cl)c1SC,EC50,[13],> 120 µM (not active)
same,EC50,[14],> 120 µM (not active)
same,EC50,[15],> 120 µM (not active)
CCOc1ccc(NC(=S)NC(=O)/C=C/c2ccc(OC)cc2)c([N+](=O)[O-])c1,IC50,[8],17.2 µM (not active)
CCOC(=O)CN1N=C(/C=C/c2ccc(C(C)C)cc2)CCC1=O,IC50,[8],9.2 µM (active)
CCOC(=O)c1c(C)nc2sc3c(=O)n(-c4ccc(OC)cc4)cnc3c2c1-c1ccc(OC)cc1,EC50,[13],21.1 µM (active)
same,EC50,[14],12.9 µM (active)
same,EC50,[15],> 120 µM (not active)

# Reference: ChEMBL document CHEMBL1201862, “PubChem BioAssay data set” (2004)
